Measurements as given in the NIST ThermoML archive (doi:10.1016/j.jct.2009.07.017).
Numbers after ± are expanded uncertainties.

Key:
[1] = 298.15 K; 101.33 kPa; Liquid; Vibrating tube method
[2] = refractive index (Na D-line) (dimensionless); conditions: 298.15 K; 101.33 kPa; Liquid; Standard Abbe refractometry
[3] = xn = mol fraction of the nth substance listed; conditions: 101.3 kPa, Liquid, Vibrating tube method

CCOS(=O)(=O)[O-].CC[n+]1cccc(C)c1 [1-ethyl-3-methylpyridinium ethylsulfate]
mass density [1]: 1219.61 ± 0.42 kg/m3
refractive index [2]: 1.50591 ± 0.00037

c1ccccc1 [benzene] + CCCCCCCC
mass density ([3]; 283.15 K, x2 = 0): 889.51 ± 0.1 kg/m3
mass density ([3]; 298.15 K, x2 = 0): 873.57 ± 0.1 kg/m3

c1ccccc1 [benzene] + CCCCCCCCC
mass density ([3]; 283.15 K, x2 = 0): 889.51 ± 0.1 kg/m3
mass density ([3]; 298.15 K, x2 = 0): 873.57 ± 0.1 kg/m3

CCCCCCCCC [nonane] + c1ccccc1
mass density ([3]; 283.15 K, x1 = 0.0982): 856.81 ± 0.13 kg/m3
mass density ([3]; 283.15 K, x1 = 0.1996): 829.82 ± 0.13 kg/m3
mass density ([3]; 283.15 K, x1 = 0.304): 807.64 ± 0.14 kg/m3
mass density ([3]; 283.15 K, x1 = 0.4001): 790.32 ± 0.15 kg/m3
mass density ([3]; 283.15 K, x1 = 0.497): 775.74 ± 0.17 kg/m3
mass density ([3]; 283.15 K, x1 = 0.5995): 762.31 ± 0.18 kg/m3
mass density ([3]; 283.15 K, x1 = 0.6989): 751.53 ± 0.2 kg/m3
mass density ([3]; 283.15 K, x1 = 0.7959): 741.95 ± 0.21 kg/m3
mass density ([3]; 283.15 K, x1 = 0.8928): 733.72 ± 0.23 kg/m3
mass density ([3]; 283.15 K, x1 = 1): 725.51 ± 0.24 kg/m3
mass density ([3]; 298.15 K, x1 = 0.0982): 841.94 ± 0.13 kg/m3
mass density ([3]; 298.15 K, x1 = 0.1996): 815.82 ± 0.13 kg/m3
mass density ([3]; 298.15 K, x1 = 0.304): 794.17 ± 0.14 kg/m3
mass density ([3]; 298.15 K, x1 = 0.4001): 777.31 ± 0.16 kg/m3
mass density ([3]; 298.15 K, x1 = 0.497): 763.05 ± 0.17 kg/m3
mass density ([3]; 298.15 K, x1 = 0.5995): 750.12 ± 0.18 kg/m3
mass density ([3]; 298.15 K, x1 = 0.6989): 739.44 ± 0.2 kg/m3
mass density ([3]; 298.15 K, x1 = 0.7959): 730.03 ± 0.21 kg/m3
mass density ([3]; 298.15 K, x1 = 0.8928): 721.91 ± 0.23 kg/m3
mass density ([3]; 298.15 K, x1 = 1): 713.99 ± 0.25 kg/m3

CCCCCCCC [octane] + c1ccccc1
mass density ([3]; 283.15 K, x1 = 0.1024): 855.9 ± 0.13 kg/m3
mass density ([3]; 283.15 K, x1 = 0.2013): 828.82 ± 0.13 kg/m3
mass density ([3]; 283.15 K, x1 = 0.3006): 806.11 ± 0.13 kg/m3
mass density ([3]; 283.15 K, x1 = 0.4234): 782.24 ± 0.14 kg/m3
mass density ([3]; 283.15 K, x1 = 0.5001): 769.31 ± 0.14 kg/m3
mass density ([3]; 283.15 K, x1 = 0.5985): 754.84 ± 0.15 kg/m3
mass density ([3]; 283.15 K, x1 = 0.6982): 741.81 ± 0.16 kg/m3
mass density ([3]; 283.15 K, x1 = 0.7972): 730.25 ± 0.16 kg/m3
mass density ([3]; 283.15 K, x1 = 0.9031): 719.42 ± 0.17 kg/m3
mass density ([3]; 283.15 K, x1 = 1): 710.5 ± 0.17 kg/m3
mass density ([3]; 298.15 K, x1 = 0.1024): 840.84 ± 0.13 kg/m3
mass density ([3]; 298.15 K, x1 = 0.2013): 814.43 ± 0.13 kg/m3
mass density ([3]; 298.15 K, x1 = 0.3006): 792.21 ± 0.13 kg/m3
mass density ([3]; 298.15 K, x1 = 0.4234): 768.91 ± 0.14 kg/m3
mass density ([3]; 298.15 K, x1 = 0.5001): 756.54 ± 0.15 kg/m3
mass density ([3]; 298.15 K, x1 = 0.5985): 742.05 ± 0.15 kg/m3
mass density ([3]; 298.15 K, x1 = 0.6982): 729.34 ± 0.16 kg/m3
mass density ([3]; 298.15 K, x1 = 0.7972): 718.02 ± 0.17 kg/m3
mass density ([3]; 298.15 K, x1 = 0.9031): 707.31 ± 0.17 kg/m3
mass density ([3]; 298.15 K, x1 = 1): 698.6 ± 0.18 kg/m3
